Source: article PMC12040169 (PLOS Biology, 2025)

Assay: in vitro
Details: human, hela cells, % viability

Row | Compound | viability at 28.5 h, 10 µM
1 | CCCS(=O)(=O)N1CCN(CCN2C(=O)c3cccc4cccc(c34)C2=O)CC1 [CBK265559] | 81%
2 | CCC(C)(C)c1ccc(S(=O)(=O)NCc2ccc(C(F)(F)F)cc2)cc1 [CBK044820] | 107%
3 | CC(=O)Nc1ccc(N2CCN(CCO)CC2)cc1OCCCOc1ccccc1 [CBK074317T] | 110%
4 | COc1ccc(CCOc2cnc(-c3ccccc3)c(N)n2)cc1 [CBK145065] | 98.8%
5 | Cc1ccc(S(=O)(=O)N2CCOCC2)cc1C(=O)NCc1ccco1 [CBK269677] | 102%
6 | Nc1ncnc(NNC(=O)CNC(=O)c2ccccc2C(F)(F)F)c1[N+](=O)[O-] [CBK267186] | 94.1%
7 | Cn1ccnc1C(NC(=O)C1CCCC1)c1ccc(F)c(F)c1 (centres unmarked) [CBK283784] | 97%
8 | Cc1nc2n(CC#N)c3ccccc3n2n1 [CBK062670] | 99.7%
9 | Nc1cccc(-c2cncc(Nc3ccccc3)n2)c1 [CBK065265] | 96.2%
10 | CCC(CC)C(=O)N(C)c1c(C)nc2ccc(C(=O)Nc3cccc(NS(C)(=O)=O)c3)cn12 [CBK146526] | 105%
11 | c1ccc(C2=Nn3c(Cn4nnc5ccccc54)nnc3SC2)cc1 [CBK268232] | 91.7%
12 | Cc1nccn1CC1(O)CCN(Cc2ccc(F)c(F)c2)CC1 [CBK284955] | 117%
13 | CN(CC(=O)N1CCC(Cc2ccccc2)CC1)S(=O)(=O)c1ccc2ccccc2c1 [CBK266931] | 78.2%
14 | CCCN1CCC(NC(=O)c2cc(COc3cccc(F)c3)[nH]n2)CC1 [CBK306753] | 88.5%
15 | O=C(O)c1ccccc1-c1ccccc1C(=O)Nc1ccc(O)cc1 [CBK286602] | 85.1%
16 | Cc1ccc(-c2nnc(CNC(=O)Cc3ccc(F)cc3)o2)s1 [CBK284645] | 91.3%
17 | Nc1nnc(Sc2ccc([N+](=O)[O-])c3nonc23)s1 [CBK266712] | 82.3%
18 | CC(NC(=O)C1CC(=O)N(Cc2ccccn2)C1)c1ccc(F)cc1 (centres unmarked) [CBK304552] | 97.1%
19 | COC(=O)[C@H]1CN(C(=O)Cc2ccccn2)C[C@@H]1c1ccc(F)cc1 [CBK283519] | 93.8%
20 | CC(=O)N1CCN(Cc2c(C(F)(F)F)[nH]c3ncc(C)cc23)CC1 [CBK284768] | 93.1%
21 | O=C(Nc1ccc(OC(F)(F)F)cc1)N1CCN(Cc2ccc3c(c2)OCO3)CC1 [CBK074754] | 99.5%
22 | CCn1c(CN2CCC(c3cc(O)nc(N)n3)C2)nc2c(F)cccc21 (centres unmarked) [CBK304189] | 87.5%

Row | Compound | viability at 28.5 h, 10 µM
23 | CC(Oc1ccccc1)C(=O)Nc1c[nH]c(=O)[nH]c1=O (centres unmarked) [CBK266524] | 72.3%
24 | CCC(C)NC(=O)C(Cc1ccc([N+](=O)[O-])cc1)N1C(=O)c2ccccc2C1=O (centres unmarked) [CBK261278] | 105%
25 | COc1ccc(CN2CCN(C(=O)c3ccccc3F)CC2)cc1OCc1ccccc1 [CBK263479] | 80.7%
26 | O=C(O)c1cccc2c1C(=O)N(Cc1c(F)cccc1Cl)C2 [CBK291201] | 111%
27 | CN1CCC(N(C2CC2)S(=O)(=O)c2ccc(NC(=O)C(C)(C)C)cc2)CC1 [CBK021115] | 99%
28 | COc1ccc(C(=O)OC(C)(C)C)c(-c2nccnc2N2CCCN(C)CC2)c1 [CBK037360] | 103%
29 | FC(F)(F)c1nnc2ccc(N3CCN(Cc4ccsc4)CC3)nn12 [CBK305930] | 88.6%
30 | CCOC(=O)c1cccc(-c2ccsc2)n1 [CBK149244] | 97.6%
31 | OCc1cccc(-c2nccnc2NCc2ccncc2)c1 [CBK037446] | 105%
32 | Brc1cn2ccnc2c(Nc2ccc3[nH]ccc3c2)n1 [CBK037449] | 102%
33 | Cc1ccccc1-n1ccn(S(=O)(=O)c2ccccc2)c1=O [CBK106567] | 86.7%
34 | COc1ccccc1N1CCN(CC(CC(=O)Nc2ccc3c(c2)OCO3)C(=O)O)CC1 (centres unmarked) [CBK286822] | 95%
35 | CCC(NC(=O)Nc1ccc(N2CCOCC2)nc1)c1cnn(CC)c1 (centres unmarked) [CBK305172] | 90.6%
36 | Cc1ccc(NC(=O)CC(C(=O)O)N(C)C)cc1 (centres unmarked) [CBK267068] | 81.7%
37 | CC(C)[C@H](CO)Nc1nccnc1-c1ccco1 [CBK037390] | 99%
38 | C[C@@H](c1ccccc1)n1c(=O)[nH]c2ncc(-c3cncc4ccccc34)nc21 [CBK064726] | 73.9%
39 | COc1ccc(C(C)C)cc1-c1nccnc1N[C@@H](CO)C(C)C [CBK036711] | 109%
40 | O=C(Cc1csc(-c2ccc(Cl)cc2)n1)NCCN1CCCC1 [CBK107306] | 90%
41 | Cc1csc(C(Cc2ccsc2)NC(=O)c2cnn(C)c2C)n1 (centres unmarked) [CBK285148] | 104%
42 | CNc1nc(SCC(=O)Nc2ccc(Cl)c(Cl)c2)nc(N2CCOCC2)n1 [CBK269559] | 85.3%
43 | CC(C)C[C@H](NC(=O)NCCN1CCOCC1)C(=O)O [CBK286619] | 99.4%
44 | O=c1[nH]cnc2c1cnn2[C@@H]1O[C@H](CO)[C@H](O)C1O (some centres unmarked) [CBK201245] | 95.8%

Row | Compound | viability at 28.5 h, 10 µM
45 | Clc1ccc(-n2ncc(-c3ccsc3)n2)cc1Cl [CBK112843] | 96.3%
46 | CC1=NN(c2ccc([N+](=O)[O-])cc2)C(=O)/C1=C\NCCN1CCN(C(=O)c2ccc(Br)cc2)CC1 [CBK261788] | 110%
47 | O=C(Nc1ccccc1N1CCOCC1)c1cccc(OCc2ccccc2)c1 [CBK270011] | 104%
48 | CC(C)c1ccc(N2C(=O)[C@@H]3C[C@@H](NC(=O)c4cccn4C)CCN3C2=O)cc1 [CBK289547] | 92.3%
49 | COc1ccccc1CN(CC(C)(C)CN)C(=O)NC1C[C@H]1c1ccccc1 (some centres unmarked) [CBK002424C] | 89.6%
50 | O=C(O)CCc1nc2nc(-c3ccco3)cc(C(F)(F)F)n2n1 [CBK286889] | 86%
51 | CC(C)c1noc(NCCc2cn3c(n2)CCCC3)n1 [CBK306444] | 93.5%
52 | CN(C)c1ccc(-c2cn3ccnc3c(NC3CC3)n2)cc1 [CBK037894] | 103%
53 | Nc1nc(-c2ccc(Cl)cc2)c(CC(=O)O)s1 [CBK287188] | 80%
54 | FC(F)(F)c1ccc(OCc2ccc(Cl)c(Cl)c2)nc1 [CBK115831] | 90.2%
55 | COc1ccc(C(=O)N2CC[C@H]3CC(=O)N(CCNC(C)=O)CC[C@H]3C2)cc1 [CBK288784] | 78.8%
56 | CC(=O)Nc1cccc(NC(=O)N2CCCCC2CO)c1 (centres unmarked) [CBK156181] | 101%
57 | c1ccc(CCCN2CCN(Cc3ccccc3)CC2)cc1 [CBK261878] | 90.1%
58 | COc1ccc(S(=O)(=O)N2CCC3(CC2)CC(=O)c2ccc(C)cc2O3)cc1OC [CBK166515] | 96.8%
59 | O=C(O)CCCC(=O)Nc1cc(C(=O)O)ccc1Cl [CBK267907] | 116%
60 | O=C(c1ccc(F)cc1)C1CCN(Cc2ncc[nH]2)CC1 [CBK149135] | 90.1%
61 | O=C(O)c1ccc(C(=O)Nc2ccc3c(=O)n4c(nc3c2)/C(=C/c2ccccc2)CC4)cc1 [CBK013048] | 82.3%
62 | CN(C)C(CNCc1cn(C)nc1-c1cccnc1)c1ccccc1 (centres unmarked) [CBK304511] | 84.8%
63 | CC(=O)Nc1ccc(NS(=O)(=O)c2ccc(C)c(C(=O)O)c2)cc1 [CBK295162] | 85.9%
64 | CCc1cc(C(=O)N2CCCC(c3cc4ccccc4cn3)C2)on1 (centres unmarked) [CBK285156] | 101%
65 | COc1cc(CN2Cc3cccc(C(=O)O)c3C2=O)cc(OC)c1OC [CBK291227] | 108%
66 | CC1CCc2nn(CCNC(=O)Cc3ccc(F)cc3)c(=O)cc2C1 (centres unmarked) [CBK284485] | 92.5%

Row | Compound | viability at 28.5 h, 10 µM
67 | Cc1nc(=O)c(-c2ccccc2)c(C)n1-c1cccc(C(=O)O)c1 [CBK286965] | 94.3%
68 | c1ccc(-c2nc3cc4ccccc4cc3[nH]2)nc1 [CBK000130] | 82.5%
69 | O=S(=O)(NC1CCCCC1)c1ccc(Cl)cc1I [CBK057574] | 80.8%
70 | COc1ccc(NC(=O)C2CC3CCC2C3)cc1S(=O)(=O)Nc1ccc(Cl)cc1 (centres unmarked) [CBK297945] | 79.4%
71 | COc1ccc(Cl)cc1C(=O)Nc1cc(C)c2c(=O)oc3ccccc3c2n1 [CBK291196] | 108%
72 | CCOC(=O)c1c(-c2ccccc2)csc1NS(=O)(=O)c1ccc(C)cc1 [CBK015841] | 95.1%
73 | C=C(C)Cn1c(=O)nc(N)c2c3c(sc21)CCC3 [CBK287986] | 88.2%
74 | COc1ccc(C)cc1S(=O)(=O)Nc1ccc(O[C@@H]2CCNC2)c2ccccc12 [CBK051622C] | 104%
75 | CCC(C)(C)c1ccc(S(=O)(=O)N2CCCN(Cc3ccc4cccc(O)c4n3)CC2)cc1 [CBK063051] | 90.5%
76 | CCCSc1scc2c1-c1n[nH]cc1CC2 [CBK017006] | 99.3%
77 | CC(C)CC1(C(CN2C(=O)c3ccccc3C2=O)C(=O)NO)CCN(CCc2ccccc2)C1=O (centres unmarked) [CBK013029] | 103%
78 | O=C(CSc1ccc(-c2ccncc2)nn1)Nc1ccc(F)cc1 [CBK287297] | 91%
79 | CC1(C(C)(O)C(F)F)OC(NC2C3CC4CC(C3)CC2C4)=NC1=O (centres unmarked) [CBK137190] | 103%
80 | CNc1ccc2cccc(OCCO)c2n1 [CBK149727] | 95.6%
81 | CCc1nnc(CN2CCCC(c3cc(C(N)=O)[nH]n3)C2)o1 (centres unmarked) [CBK305213] | 74.5%
82 | O=C(NCc1ccccn1)c1ccc(CNS(=O)(=O)c2cccc(Cl)c2)cc1 [CBK267297] | 100%
83 | COCC(=O)N1CCN2C(=O)c3ccccc3NC(=O)[C@@H]2C1 [CBK289582] | 90.6%
84 | COc1cc(C(=O)N2CCC(N(C)C)C2)ccc1Nc1cncc(-c2cc3ccccc3[nH]2)n1 (centres unmarked) [CBK161475] | 90.6%
85 | COc1ccccc1CCC(=O)N1CCCc2c(cnn2C)C1 [CBK284847] | 80%
86 | NNC(=O)CNS(=O)(=O)c1ccccc1 [CBK261967] | 97.9%
87 | Cc1nc2c(-c3ccccc3)cnn2c(N2CCCC2)c1C [CBK287799] | 89%
88 | Cc1n[nH]c(=O)c2c(C)noc12 [CBK001281] | 101%

Same assay, conditions: human, hela cells, % viability, bulk resorufin, single well

Row | Compound | viability at 28.5 h, 10 µM
89 | CCOC(=O)N1CCC2(CC1)Oc1ccc(Cl)cc1O2 [CBK084590] | 94.2%
